Format in all cases: in vivo
Data set [1] concerns six broadleaf weeds (CASOB, IPOHE, ABUTH, AMARE, CHEAL, XANST). In words: Greenhouse pre-emergence test, mean control of six broadleaf weeds. Conditions: soil surface spray 1 day after planting, visual rating 0-100% after two weeks, grass herbicides 1000 g/ha, atrazine 1680 g/ha, isoxaflutole 78 g/ha, B-128 125 g/ha. The source says:
(§1) Seeds of weed species were sown in 10 cm square plastic pots containing a 3:2:1 sand:soil:peat mixture. Species included six broadleaf weeds, CASOB (Cassia obtusifolia, L., sicklepod), IPOHE (Ipomoea hederacea, L., ivyleaf morningglory), ABUTH (Abutilon theophrastii, velvetleaf, AMARE (Amaranthus retroflexus, redroot pigweed), CHEAL (Chenopodium album, lambsquarters) and XANST (Xanthium strumarium, cocklebur ), four grass weeds, SORHA (Sorghum halepense, johnsongrass), SETVI (Setaria viridis, green foxtail), ECHCG (Echinochloa crus-galli, bamyardgrass), and DIGSA (Digitria sanguinalis, large crabgrass) and four crops species, Zea mays, Glycine max L. Triticum aestivum, and Oryza sativa. Herbicide treatments were applied in water carrier via automated track sprayer to the soil surface of these pots 1 day after planting. The sprayer was calibrated to deliver the material in a volume of 187 l/ha through a TJ8001E spray nozzle at a pressure of 40 PSI.
(§2) Treatments included the compounds of formula I numbers 1, 15, 16 and 23, the commercial grass herbicides metolachlor S (Dual II Magnum®), acetochlor (Harness®), alachlor (Lasso MT®) alone and in combination with three broadleaf herbicides, atrazine, isoxaflutole and compound B-128 (Table 2). All grass herbicides (compounds 1, 15, 16, 23, metolachlor S, acetochlor and alachor were applied at a rate of 1000 g/ha. The broadleaf herbicides were applied at 1680 g/ha for atrazine, 78 g/ha for isoxaflutole and 125 g/ha for B-128.
(§3) After treatment, pots were returned to a greenhouse where they were watered and held in good growth conditions for two weeks. At the end of two weeks, herbicidal efficacy was evaluated visually using a rating system from 0-100%, where 0=no inhibition of growth, and 100=complete death of all plants in the testing unit. Results are reported in table 3 as the mean control of all six broadleaf weeds, mean control of all four grass weeds and the phytotoxicity to maize.

In data set [2] the test system is four grass weeds (SORHA, SETVI, ECHCG, DIGSA). As to the kind of experiment: Greenhouse pre-emergence test, mean control of four grass weeds. Conditions: soil surface spray 1 day after planting, visual rating 0-100% after two weeks, grass herbicides 1000 g/ha, atrazine 1680 g/ha, isoxaflutole 78 g/ha, B-128 125 g/ha.
Source text: as §1, §2, §3

The next data set concerns broadleaf weeds. As to the kind of experiment: Field trials, mean control of broadleaf weeds. Conditions: grass herbicides 1000 g/ha, atrazine 1680 g/ha, B-128 150 g/ha. The source says:
(§4) Two field trials were established on contrasting soil types. Trial 1 was on a soil with low organic matter and high sand content, and trial 2 was on a clay loam soil with moderate amounts of organic matter. In both cases, the soil was overseeded (followed by light tillage) with seeds of Amaranthus retroflexus, Abutilon theophrasti, Chenopodium album, Ipomoea hederacea, and Setaria viridis to ensure consistent weed populations. Maize was planted with 30 inches between rows. Immediately after planting the maize, herbicidal treatments were applied using a boom sprayer equipped with Tee Jet 110-015 nozzles applying the spray solution at a rate of 187 l/hectare. Untreated check plots were included as the basis for comparison of herbicidal efficacy.
(§5) Treatments included the compound of formula I number 16, the commercial grass herbicides metolachlor S (Dual II Magnum®), acetochlor (Harness®) and dimethenamid (Frontier®) alone and in combination with two broadleaf herbicides, atrazine and B-128. All grass herbicides (compound 16, metolachlor S, acetochlor and dimethenamid) were applied at a rate of 1000 g/ha. The broadleaf herbicides were applied at 1680 g/ha for atrazine and 150 g/ha for B-128.
(§6) Observations on percent weed control and phytotoxicity to maize were made at 35 days after treatment for field trial 1 and 21 days after application for field trial 2. All visual estimates were made in comparison to untreated check plots. Results reported are the mean control of broadleaf weeds, and percent control for Setaria viridis, the predominant grassy weed in this experiment.

The test system of a further data set is Setaria viridis. In words: Field trials, control of Setaria viridis. Conditions: grass herbicides 1000 g/ha, atrazine 1680 g/ha, B-128 150 g/ha.
Source text: as §4, §5, §6

For data set [3], the system named is Amaranthus retroflexus, Abutilon theophrasti, Chenopodium album, Ipomoea hederacea, and Setaria viridis. As to the kind of experiment: Field trials, overall herbicidal performance in words.
Source text: as §4, §5
Observations on percent weed control and phytotoxicity to maize were made at 35 days after treatment for field trial 1 and 21 days after application for field trial 2. […]

In data set [4] the test system is maize. In words: Field trials, phytotoxicity to maize. Conditions: grass herbicides 1000 g/ha, atrazine 1680 g/ha, B-128 150 g/ha.
Source text: as §4, §5, §6

In data set [5] the test system is maize. As to the kind of experiment: Greenhouse pre-emergence test, phytotoxicity to maize.
Source text: as §1, with “PSI. […]” for “PSI.”
After treatment, pots were returned to a greenhouse where they were watered and held in good growth conditions for two weeks. At the end of two weeks, herbicidal efficacy was evaluated visually using a rating system from 0-100%, where 0=no inhibition of growth, and 100=complete death of all plants in the testing unit. […]

Setting [6] is: field trial 1, low organic matter, high sand content soil, 35 days after application.
The mark [7] stands for this setting: field trial 2, moderate organic matter, high clay content soil, 21 days after application.

Take `COCC(C)N(C(=O)CCl)c1c(C)csc1C` (centres unmarked) [dimethenamid, 2-chloro-N-[(1-methy-2-methoxyl)ethyl]-N-(2,4-dimethyl-3-thienyl)-acetamide]: the broadleaf control in data set [1] turned out to be 68%; in the data set with broadleaf weeds (setting [6]) it was 44%; in the data set with broadleaf weeds (setting [7]) it was 26%. Also, in data set [2], the Grass control worked out at 100%. The S. viridis control is 100% in the data set on Setaria viridis (setting [6]) and 86% with Setaria viridis (setting [7]).

Consider `CCOCN(C(=O)CCl)c1c(C)cccc1CC` [acetochlor, 2-chloro-N-ethoxymethyl-6′-ethylacet-o-toluidide], for which the broadleaf control turned out to be 75% in data set [1], 50% in the data set with broadleaf weeds (setting [6]) and 36% in the data set with broadleaf weeds (setting [7]). For the same molecule, the Grass control in data set [2] worked out at 100%. Further, the S. viridis control in the data set on Setaria viridis (setting [6]) is listed as 99%; with Setaria viridis (setting [7]), 87%.

In the case of `C#CCN(C(=O)CCl)c1c(CC)cccc1CC` [Cpd 16], the broadleaf control in data set [1] is 53%; with broadleaf weeds (setting [6]), 33%; in the data set on broadleaf weeds (setting [7]) it was 24%. Besides, the Grass control in data set [2] was 100%. Also, the “performance (in words)” value in data set [3] (higher organic, high clay soil, compared with the three standards) is given as “relatively better than two of the three standards”. In addition, in data set [3] (sandy, low organic matter soil, combined with atrazine or B-128), the “efficacy (in words)” value is reported as “equal efficacy as other herbicides”. Also, the S. viridis control was 96% in the data set on Setaria viridis (setting [6]) and 75% in the data set with Setaria viridis (setting [7]). Moreover, the Phytotoxicity is listed as 0% in the data set with maize [4] (setting [6]) and 2% in the data set on maize [4] (setting [7]).

For the molecule `C#CCN(C(=O)CCl)c1c(C)cccc1CC` [Cpd 15], in data set [1], the broadleaf control was determined as 32%. The Grass control in data set [2] was found to be 100%.

`CCc1cccc(C)c1N(C(=O)CCl)[C@@H](C)COC` [Metolachlor S, (S)-2-chloro-N-(2-ethyl-6-methylphenyl)-N-(2-methoxy-1-methylethyl)acetamide]: the values for the broadleaf control (in data set [1]; in the data set on broadleaf weeds (setting [6]); in the data set with broadleaf weeds (setting [7])) were 41%, 40% and 18%, respectively. For the same molecule, the Grass control in data set [2] is 100%. Besides, the Phytotoxicity in the data set with maize [5] (phytotoxicity to maize, greenhouse, visual rating 0-100% after two weeks, grass herbicides 1000 g/ha, atrazine 1680 g/ha, isoxaflutole 78 g/ha, B-128 125 g/ha) is given as 0%; with maize [4] (setting [6]) it was 0%; in the data set with maize [4] (setting [7]), 1%. Moreover, the results for the S. viridis control in the data set with Setaria viridis (setting [6]) and in the data set with Setaria viridis (setting [7]) were 100% and 60%, respectively.

For the molecule `C#CCN(C(=O)CCl)c1c(C)cccc1C` [Cpd 23], in data set [1], the broadleaf control is reported as 33%. The Grass control in data set [2] is recorded as 100%. Further, the “phytotoxicity to maize (in words)” value with maize [5] (in vivo) is recorded as “moderately more phytotoxic”.

For `CCc1cccc(CC)c1N(CC#N)C(=O)CCl` [Cpd 1], in data set [1], the broadleaf control is on record as 22%. Moreover, the Grass control in data set [2] is recorded as 100%.

The values above are taken from patent US6455469B1, “Herbicidal composition” (Ishihara Sangyo Kaisha, Ltd., priority 2000, dated 2002).
